Measured values taken from US8283322B2, “Formulations for nonsurgical exogenous crosslink therapy” (Orthopeutics, LP, priority 2008, dated 2012).

Assays:
[1] = system: lumbar intervertebral joints (posterior annulus); test: Indentation testing (stress relaxation, hardness) with compression/flexion fatigue cycling; conditions: soaking the calf disc tissue in 0.33% concentration of genipin
From the text: Thirty-three lumbar intervertebral joints were obtained from ten four-month-old calf spines. The intervertebral joints were arbitrarily divided into 3 groups: untreated controls-12 specimens, Genipin treatment 1 (G1)-6 specimens, and Genipin treatment 2 (G2)-13 specimens. The G1 treatment involved 72 hrs of soaking the whole specimen in PBS with a 0.033% concentration of Genipin. Similarly, the G2 treatment involved 72 hrs of soaking whole specimens in PBS with 0.33% concentration of Genipin. 0.33% Genipin in PBS is produced by dilution of 50 ml of 10×. PBS (Phosphate Buffered Saline) with distilled water by a factor of 10 to give 500 ml (500 gm) of PBS and mixing in 1.65 grams of genipin to produce the 0.33% (wt %, gm/gm) solution. […] Some controls were not subjected to soaking prior to fatigue testing. Others were soaked in a saline solution for 72 hrs. Water mass loss experiments were conducted to establish the equivalency of outer annulus hydration between the genipin soaked and 0.9% saline soaked controls. The selection of treatments was randomized by spine and level. […]
Following initial indentation testing, the specimen was loaded repetitively in flexion-compression at 200 N for 3000 cycles at a rate of 0.25 Hz. […] Several statistical measures were calculated to evaluate the significance of the results. […]

[2] = system: calf intervertebral discs; test: Hydration change / fluid flux of disc regions (soaking, creep loading, resoaking); parameters: species or system calf (4 month-old bovine); conditions: for % increase by Genipin, NP: flux into and out of the central nucleus region vs control flux
From the text: By measuring the change in hydration of different regions of the intervertebral disc (nucleus pulposus, inner annulus, and outer annulus fibrosus) prior to and after periods of soaking, sustained compressive loading, and resoaking, the fluid flux to and from different regions can be determined. By comparing these measurements between control discs and discs treated with crosslinking reagents known to have minimal cytotoxicity, we see the effect of crosslinking treatment on fluid flux and permeability. A total of 24 calf (4 month-old bovine) intervertebral discs were used for this study. Water content of three different areas of the […] tissue were tested-the nucleus pulposus, inner annulus fibrosus and outer annulus fibrosus. Hydration change was determined by weighing the specimen using a micro-balance (sensitivity: 0.1 mg). Water content (M) was calculated as: M=(Wet Weight-Dry Weight)/Wet Weight=g H2O/g Wet Weight The drying procedure consisted of putting the specimens in the oven with a controlled temperature of 90° C. for 24 hrs. The specimens were separated into four tests: • 1. Group A: Three specimens were in this group. It served as a control group. The specimens were soaked in PBS (phosphate buffered saline) for 1 day and then the hydration analysis was performed. • 2. Group B1: Four specimens were in this group. In addition to the one day PBS soaking, the specimens soaked in PBS for 2 more days as a control and then the hydration analysis was performed. • Group B2: Five specimens were in this group. In addition to the one day PBS soaking, the specimens were soaked in 0.33% genipin solution for 2 days and then the hydration analysis was performed. • 3. In group C, a small daytime amount of constant compressive loading (creep) was simulated. • C1: Three specimens were in this group. The specimens were soaked in PBS for 3 days and then […] of compression was applied by a materials testing machine for 1 hour. The disc was compressed in a 5 degree of flexion posture produced by two rollers attached to the loading ram of the materials testing machine. The hydration analysis was performed immediately after the creep loading. • C2: Three specimens were in this group. The specimens were soaked in 0.33% Genipin solution for 2 days after 1 day of PBS soaking and performed identical creep loading with […] compressive load. The hydration analysis was performed immediately after the creep loading. • 4. In group D, the imbibition of water following a period of compressive loading that typically occurs in the night time as a person is in a recumbent posture was simulated. • D1: The specimens were soaked in PBS solution for 3 days and then 1 hr of creep loading at […] was applied. After the creep loading, the specimens were placed in a container in 1 PBS for one more day followed by the hydration analysis. • D2: Three specimens were included and were soaked in 0.33% genipin solution for 2 days after one day of PBS soaking. A creep load of […] for 1 hr was then applied. The specimens were put in PBS for another day followed by the hydration analysis.

[3] = combined fluid flow out (creep) and in (resoaking)

SMILES: COC(=O)C1=CO[C@@H](O)[C@@H]2C(CO)=CC[C@H]12 [Genipin, genipin]
- reduction in viscoelastic degradation [1]: More than a three-fold reduction
- Genipin Flux, Inner AF [2, 3]: 0.1008
- Genipin Flux, NP [2, 3]: 0.04983
- Genipin Flux, Outer AF [2, 3]: 0.05294
- % increase by Genipin, NP [2]: 63.7%
- % increase by Genipin, NP ([2]; listed as genipin): 64%
- % increase by Genipin, Inner AF ([2]; flux vs control flux): 17.3%
- % increase by Genipin, Outer AF ([2]; flux vs control flux): 5.7%
